Results reported in US7279286B2, “High-throughput-assay with high sensitivity for measuring of the activity of β-adrenergic receptor kinase and for determining the impact of test substances on such activity” (Sanofi-Aventis Deutschland GmbH, priority 2003, dated 2007).

Key:
[1] = target: T1, βARK (Homo sapiens, UniProt P25098, A211R/K465R/R422H); experiment: βARK inhibition AlphaScreen assay (phosphorylation of biotinylated CCR5 peptide); format: biochemical; settings: assay validation, read-out: apparent Km (ATP dependence)
T1 sequence (P25098 1-689 A211R/R422H/K465R): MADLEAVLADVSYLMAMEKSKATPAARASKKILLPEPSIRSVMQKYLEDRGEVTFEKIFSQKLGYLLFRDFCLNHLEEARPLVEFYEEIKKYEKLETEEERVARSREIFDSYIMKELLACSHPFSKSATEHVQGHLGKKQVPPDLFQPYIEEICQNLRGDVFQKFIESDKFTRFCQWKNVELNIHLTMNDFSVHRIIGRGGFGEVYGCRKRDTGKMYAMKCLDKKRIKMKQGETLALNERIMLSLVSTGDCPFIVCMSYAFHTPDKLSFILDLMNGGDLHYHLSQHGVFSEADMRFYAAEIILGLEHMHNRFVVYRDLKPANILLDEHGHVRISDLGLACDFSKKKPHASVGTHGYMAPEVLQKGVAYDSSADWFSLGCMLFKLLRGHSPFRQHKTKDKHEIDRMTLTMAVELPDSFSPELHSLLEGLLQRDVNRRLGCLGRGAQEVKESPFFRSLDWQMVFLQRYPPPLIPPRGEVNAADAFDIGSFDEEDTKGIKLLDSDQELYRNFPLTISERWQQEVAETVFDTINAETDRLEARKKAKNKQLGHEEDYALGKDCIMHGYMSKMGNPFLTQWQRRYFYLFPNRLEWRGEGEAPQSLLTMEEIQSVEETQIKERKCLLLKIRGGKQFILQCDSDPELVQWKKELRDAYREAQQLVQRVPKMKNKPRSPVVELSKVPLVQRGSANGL
Source text: (§1) In the βARK inhibition experiment biotinylated hunian CC ehemokine receptor 5, herein abbreviated CCR5 peptide (Seq. ID No. 1) is phosphorylated by the kinase. The phosphorylated serine is recognized by a specific antibody which, in turn, is bound to protein A coupled acceptor beads. The biotinylated N-terminus of the CCR5 peptide is coupled to streptavidin-coated donor heads. Thus, in the absence of inhibitors an AlphaScreen signal is detected that decreases when the enzymatic activity in inhibited. […]
(§2) Percent-inhibition values are calculated as: […]

[2] = target: T2, βARK (Homo sapiens, UniProt P25098); experiment: as above; format: biochemical; settings: 0.5 μM βARK, 100 nM CCR5 peptide, 10 μM ATP, 120 min room temperature, read-out: IC50 (dose-response curve)
T2 sequence (P25098 1-689 A211R/R422H/K465R): T1 sequence (P25098 1-689 A211R/R422H/K465R)
Source text: as §1, §2

Row | IC50 [2] [nM] | Compound | Km [1] [µM]
1 |  | Nc1ncnc2c1ncn2[C@@H]1O[C@H](COP(=O)(O)OP(=O)(O)OP(=O)(O)O)[C@@H](O)[C@H]1O [ATP] | 4
2 | 50 | heparin | 
